Data reported in ChEMBL document CHEMBL1136578, “Synthesis of non-natural C2-homo-ceramide and its apoptotic activity against HL-60 cells” (2003).

Tested on: HL-60
Experiment: Apoptotic activity against HL-60 (Human leukemia) cell after 6 hr of stimulation measured by MTT assay
Format: functional

Structure (SMILES): CCCCCCCCCCCCCCC[C@@H](O)[C@H](CCCO)NC(C)=O
- Apoptosis: 20%

Structure (SMILES): CCCCCCCCCCCCC/C=C/[C@@H](O)[C@H](CO)NC(C)=O (stereo in doubt; form 1)
- Apoptosis: 62%

Structure (SMILES): CCCCCCCCCCCCCCC[C@@H](O)[C@H](CCO)NC(C)=O
- Apoptosis: 21%

Structure (SMILES): CCCCCCCCCCCCC/C=C/[C@@H](O)[C@H](CCCO)NC(C)=O
- Apoptosis: 52%

Structure (SMILES): CCCCCCCCCCCCC/C=C/[C@@H](O)[C@H](CCO)NC(C)=O
- Apoptosis: 48%
